The subject of data set [1] is normal human endocervical epithelial cells (CrEC-En 4312). The data set can be described thus: MTT cell proliferation assay, endocervical epithelial cells. Conditions: for IC50: Homo sapiens, Epithelial cell, read-out: IC50 endocervical epithelial cells; for SI (Selectivity Index) endocervical epithelial cells: ratio of IC50 to EC50 (sperm). It counts as cell-based. As for the experimental part: (§1) Normal human ectocervical (CrEC 4627) and endocervical epithelial cells (CrEC-En 4312) were obtained from Clonetics, (San Diego, Calif.) and propagated in T-150 cm^2 tissue culture flasks (Corning Corp., Corning, N.Y.) in small airway epithelial cell basal medium (Clonetics) supplemented with 50 μg/ml BPE, 0.5 μg/ml hydrocortisone, 0.5 μg/ml hEGF, 0.1 μg/ml retinoic acid, […] trasferrin, 5 μg/ml insulin, 5 μg/ml epinephrine, and 0.5 mg/ml BSA-FAF.
(§2) Briefly, cells were harvested with 0.125% (w/v) trypsin-0.02% EDTA (GIBCO) from exponential-phase maintenance cultures and centrifuged (300 g×5 minutes). After suspension and counting, cells were dispensed within triplicate 96-well tissue culture plates in 100 μl volumes. […] NNIs were reconstituted in DMSO to a concentration of 100 mM. […] Control wells with medium containing 0.25% of DMSO alone were included as controls. Culture plates were then incubated for 24 hour before adding 10 μl of MTT solution (5 mg/ml in PBS) to each well. Wells containing only medium and MTT were used as control for each plate. The tetrazolium/formazan reaction was allowed to proceed for 4 hours at 37° C., and then 100 μl of the solubilization buffer (10% sodium dodecyl sulfate in 0.1% HCl) was added to all wells and mixed thoroughly to dissolve the dark blue formazan crystals.
(§3) After an overnight incubation at 37° C., the optical densities (OD) at 540 nm were measured using a 96-well multiscanner autoreader with the solubilization buffer serving as blank, To translate the OD540 values into the number of live cells in each well, the OD540 values were compared to those on standard OD540-versus-cell number curves generated for each cell line. The percent survival was calculated using the formula: % survival=Live cell number [test]/Live cell number [control]×100. All assays were run in triplicate and the results were expressed as IC50 values. The IC50 was defined as the concentration required for 50% reduction in cell survival.
(In general: Formazan colour is commonly taken as a measure of viable cells.)

In data set [2] the test system is human sperm acrosomal membrane. As to the kind of experiment: Sperm acrosomal membrane integrity, confocal laser scanning microscopy (FITC-Pisum sativum lectin). It counts as cell-based. The following applies: for acrosome status in confocal images: 500 μM, 6 hours. The method, then:
The percentages of sperm with an intact acrosome following a 6 hour treatment with and without increasing concentrations (31.2 μM to 500 μM) o f th e three NNIs (S-DABO, F-PBT and D-PBT in comparison to N-9 were evaluated by CLSM. Ethanol permeabilized and airdried sperm smears were stained sequentially with the three fluorescent markers, FITC-Pisum sativum lectin, TOTO-3 iodide, and Nile red (Molecular Probes, Eugene, Oreg.) because their targets are different (acrosome, nucleus, and membrane lipid respectively). Samples were examined under a BioRad MRC-1024 Laser Scanning Confocal Microscope (BioRad Laboratories, Hercules, Calif.) equipped with a krypton/argon mixed gas laser (excitation lines 488, 568, and 647 nm) and mounted on a Nikon Eclipse E800 series upright microscope. The fluorescence emission of fluorescein, TOTO-3 iodide, and Nile red from the acrosomal region, nucleus, and the plasma membrane of sperm after ethanol permteabilization were si multan eously detected using the […], and 680 DF32 emission/filter, respectively. Confocal images were obtained using a Nikon 100×(NA 1.35) objective lens and Kalman collection filter. Digitized images were saved on a Jaz disk (Iomega Corporation, Roy, UT) and process ed using Lasersharp Bio-Rad) with the Adobe Photoshop software (Adobe Systems, Mountain View, Calif.). Final images were printed on a Fuji Pictrography 3000 (Fuji Photo Film Co., Tokyo, Japan) color printer.

In data set [3] the test system is human sperm. The data set can be described thus: Sperm immobilizing activity, concentration-dependent, CASA. The following applies: for EC50: Homo sapiens, Sperm, read-out: Spermicidal activity EC50 (sperm motility); for effect on sperm motility: concentrations as high as 500 μM. The format is cell-based. As for the experimental part:
All donor sperm specimens were obtained after informed consent and in compliance with the guidelines of the Hughes Institute Institutional Review Board. Motile sperm (≧10×10^6/ml), were suspended in 1 ml of Biggers, whitten, and Whittingam's medium (BWW) containing 25 mM HEPES (Irvine Scientific, Santa Ana, Calif.), and 0.3% BSA in the presence and absence of serial two-fold dilutions of test substance (500 μM to 31.2 μM) in 1% DMSO. The stock solutions of NNIs were prepared in DMSO (100 mM) and diluted in assay medium to yield the desired concentrations. Corresponding volume of DMSO (1%) was added to control tubes. N-9 was diluted in BWW-0.3% BSA (pH 7.4) to yield the desired concentrations (31.2 μM to 500 μM). After 3 hours of incubation at 37° C., the percentage of motile sperm was evaluated by CASA by procedures as described in D'Cruz et al., BIOL REPROD, 58:1515-1526, (1998); and D'Cruz et al., MOL HUM REPROD, 4:683-693 (1998). The percent motilities were compared with sham-treated control suspensions of motile sperm. The spermicidal activity of test compounds was expressed as the EC50 (the final concentration of the compound in medium that decreases the proportion of motile sperm by 50%).
(§4) For CASA, 4 μl of each sperm suspension were loaded into two 20-μm Microcell chambers in a counting chamber at 37° C. At least 5-8 fields per chamber were scanned for analysis using a Hamilton Thome Integrated Visual Optical System (IVOS), version 10 instrument (Hamilton Thorne Research Inc., Danvers, Mass.). Each field was recorded for 30 seconds. The computer calibrations were set at 30 frames at a frame rate of 30/second. Other settings were as follows: minimum contrast 8; minimum size 6; low-size gate, 1.0; high-size gate, 2.9; low-intensity gate, 0.6; high-intensity gate, 1.4; phase-contrast illumination; low path velocity at 10 μm/s, and threshold straightness at 80%; and magnification factor, 1.95.
(§5) The sperm kinematics parameters that were determined included numbers of motile (MOT) and progressively (PRG) motile sperm; curvilinear velocity (VCL; a measure of the total distance traveled by a given sperm during the acquisition divided by the time elapsed); average path velocity (VAP; the spatially averaged path that eliminates the wobble of the sperm head), straight line velocity (VSL; the straight-line distance from beginning to end of track divided by time taken), beat cross frequency (BCF; frequency of sperm head crossing sperm average path), the amplitude of lateral head displacement (ALH; the mean width of sperm head oscillation), and the derivatives, straightness (STR=VSL/VAP×100) and linearity (LIN=VSL/VCL×100; departure of sperm track from a straight line). Data from each individual cell track were recorded and analyzed. At least 200 motile sperm were a nalyzed for each aliquot sampled.

Another data set has as its system HTLVIIIB strain of HIV-1. As to the kind of experiment: p24 antigen production in HIV-1 (HTLVIIIB) infected PBMCs. Conditions: Human immunodeficiency virus 1, PBMC.
For data set [4], the system named is normal human ectocervical epithelial cells (CrEC 4627). As to the kind of experiment: MTT cell proliferation assay, ectocervical epithelial cells. The format is cell-based. The following applies: for IC50: Homo sapiens, Epithelial cell, read-out: IC50 ectocervical epithelial cells; for SI (Selectivity Index) ectocervical epithelial cells: ratio of IC50 to EC50 (sperm). The method, then: as §1, §2, §3

Data set [5] has as its target purified recombinant HIV RT (Human immunodeficiency virus type 1 group M subtype B, UniProt P04585). The data set can be described thus: RT inhibitory activity against purified recombinant HIV RT (cell-free Quan-T-RT scintillation proximity assay). (Scintillation proximity formats need no separation of bound from free tracer.)
Procedure: In the assay, a DNA/RNA primer/template is bound to SPA beads via a biotin/streptavidin linkage. The primer DNA is a 16-mer oligo(T) which has been annealed to a poly(rA) template. The primer/template is bound to a streptavidin-coated SPA bead. ^3H-TTP is incorporated into the primer by reverse transcription. In brief, ^3H-TTP, at a final concentration of 0.5 Ci/sample was diluted in RT assay buffer (49.5 mM Tris-HCl, pH 8.0, 80 mM KCl, 10 mM MgCl2, 10 mM DTT, 2.5 mM EGTA, 0.05% Nonidet-P-40), and added to annealed DNA/RNA bound to SPA beads. The compound being tested was added to the reaction mixture at 0.001 μM-100 μM concentrations. […] The reaction was stopped by addition of 0.2 ml of 120 mM EDTA. The samples were counted in an open window using a Beckman LS 7600 instrument (Beckman Instruments, Fullerton, Calif.).
In data set [6] the test system is human sperm. As to the kind of experiment: Time-dependent sperm immobilization and sperm kinematic parameters, CASA. It counts as cell-based. Conditions: 1 mM. As for the experimental part: To test the effect of duration of incubation on SIA of spermicidal NNIs, motile fractions of sperm (10^7/ml) were incubated at 37° C. in BWW-0.3% BSA in the presence of 1 mM F-PBT, S-DABO in 1% DMSO or 1% DMSO alone as vehicle control. At timed intervals of 5 or 10 minutes, duplicate aliquots (4-μl) were transferred to two 20 μm Microcell chambers (Conception Technologies) and sperm motility was assessed by CASA for a duration of 60 minutes.
as §4, §5

Setting [7] is: 168 h, read-out: IC50 p24 (HTLVIIIB).
[8] abbreviates: 3 hours incubation at 37° C., CASA.
[9] abbreviates: in Homo sapiens, read-out: IC50[p24], HIV replication in PBMCs.

Entries after “also recorded” stand apart in the source; their conditions may differ. Where two headings read alike, the source gives them in different places.

Procedure for HTLVIIIB strain of HIV-1: The HTLVIIIB strain of HIV-1 was propagated in CCRF-CEM cells and the virus stocks obtained from cell-free supernatants of infected cells were titered using MT-2 cells. Cell-free supernatants were harvested and frozen in 1 ml aliquots at −70° C. Titration of the stock virus was performed using MT-2 cells and the cytopathic effect of the virus used in this study was typical of HIV-1 on MT-2 cells.
Cells were cultured for 7 days in 96-well microtiter plates (100 μl/well; 2×10^6 cells/ml, triplicate wells) in the presence and absence of various concentrations (0.001 μM to 100 μM) of the anti-HIV agents. Cells from non-infected controls were handled in the same way except the virus was omitted from the preparation. Aliquots of culture supernatants were removed from the wells on the 7th day after infection for RT assays and p24 antigen, as previously described in the following references: Erice et al., ANTIMICROB AG CHEMOTHER, 37:835-838 (1993); Uckun et al., ANTIMICROB AGENTS CHEMOTHER, 42:383-388 (1998); and Zarling et al., Nature 347:92-95 (1990).
The p24 enzyme immunoassay was the unmodified kinetic assay available commercially (Coulter Corporation/Immunotech, Inc., Westbrook, Me.). The assay uses a murine monoclonal antibody to the HIV core protein coated onto microwell strips to which the antigen present in the test culture supernatant sample binds. […] The plates were read on a ELISA reader (Molecular Devices, Sunnyvale, Calif.) at 650 nm and p24 levels, expressed as ng/ml, were calculated against known standards supplied by Coulter/Immunotech, Inc. Percent viral inhibition was calculated by comparing the p24 values for the test substance-treated infected cells with the p24 values for untreated infected cells (i.e., virus controls).
Percent inhibition of virus replication was calculated by comparing the p24 antigen values or RT activity from the test drug-treated infected cells with p24 antigen values or RT activity from untreated infected cells. The anti-HIV activity of compounds was expressed as the IC50 values, calculated from the dose-response curves, and defined as the drug concentration that decreases the HIV-1 RT activity or p24 antigen production in HIV-1 infected PBMCs, by 50%.

For the compound `CCCCCCCCCc1ccc(OCCOCCOCCOCCOCCOCCOCCOCCOCCO)cc1` [Compound N-9, nonoxynol-9, reference compound], the values for the IC50 (in data set [1] (24 h); in the data set on HTLVIIIB strain of HIV-1 (setting [7]); in data set [4] (24 h)) were 11 µM, 2.2 µM and 15 µM, respectively. The “SI (Selectivity Index) endocervical epithelial cells” value in data set [1] stood at 0.13. In data set [2], the “acrosome status in confocal images” value is listed as “no green fluorescence; also recorded: only acrosome-reacted sperm”. The “acrosomal staining (FIG. 5A)” value in data set [2] (after 6 hours of incubation) is listed as “complete loss of acrosomal staining”. The EC50 (usually the concentration that produces a half-maximal response) with human sperm [3] (3 h) was 81 µM. Besides, in data set [4], the “SI (Selectivity Index) ectocervical epithelial cells” value was 0.18.
On to `COc1ccc(OC)c(CCNC(=S)Nc2ccc(Br)cn2)c1` [D-PBT, N-[2-(2,5-dimethoxyphenethyl)]-N′-[2-(5-bromopyridyl)]-thiourea], for which the “effect on sperm motion parameters (PRG, VCL, VAP, VSL, STR, LIN, BCF, ALH)” value with human sperm [3] (CASA) is reported as “did not alter the sperm motion parameters”. Besides, the EC50 with human sperm [3] (setting [8]) was more than 500 µM. In the data set on human sperm [3], the “effect on sperm motility” value is reported as “did not affect sperm motility”. For the same compound, the results for the IC50 (in the data set on HTLVIIIB strain of HIV-1 (setting [7]); in the data set on HTLVIIIB strain of HIV-1 (setting [9]); in data set [5]) were less than 0.001 µM, less than 0.001 µM and 0.1 µM, respectively.
Turning to `Fc1ccccc1CCNC(=S)Nc1ccc(Br)cn1` [F-PBT, N-[2-(2-fluorophenethyl)]-N′-[2-(5-bromopyridyl)]-thiourea], the IC50 (commonly the concentration that inhibits the measured activity by half) in data set [1] (24 h) is more than 1000 µM; in data set [1], more than 1000 µM; in the data set with HTLVIIIB strain of HIV-1 (setting [7]) it was less than 0.001 µM; in the data set with HTLVIIIB strain of HIV-1 (setting [9]) it was less than 0.001 µM; in data set [4] (24 h) it was more than 1000 µM; in data set [4] it was more than 1000 µM. The IC50 in data set [5] amounted to 0.4 µM. Also, the “SI (Selectivity Index) endocervical epithelial cells” value in data set [1] is more than 6.8. In addition, the “acrosome status in confocal images” value in data set [2] is “acrosomes remained intact; also recorded: None of the FIGS. 5B, 5C, or 5D show increased acrosome reaction”. For the same compound, the “spermicidal activity (in words)” value in the data set on human sperm [3] was “concentration- and time-dependent spermicidal activity”. In addition, the EC50 in the data set on human sperm [3] (3 h) was 147 µM. For the same compound, in data set [4], the “SI (Selectivity Index) ectocervical epithelial cells” value is more than 6.8. The “time required for 50% motility loss of progressively motile sperm” value with human sperm [6] (37° C.) was determined as 10 min. Also, the “beat cross frequency (BCF) and amplitude of lateral head displacement (ALH)” value with human sperm [6] (time-dependent, 60 minutes) is “relatively stable”. For the same compound, in the data set on human sperm [6] (time-dependent, 60 minutes), the “linearity (LIN) and straightness (STR)” value was “remained relatively constant”. Moreover, in the data set on human sperm [6] (time-dependent, 60 minutes), the “movement characteristics of surviving sperm (VCL, VAP, VSL)” value is “significant changes”.
In the case of `CSCSc1nc(Cc2ccccc2)c(C(C)C)c(=O)[nH]1` [S-DABO, 5-isopropyl-2-[(methylthiomethyl)thio]-6-(benzyl)-pyrimidin-4-(1H)-one], the IC50 is more than 4000 µM in data set [1] (24 hours treatment, MTT); more than 4000 µM in data set [1] (MTT dose survival curves); less than 0.001 µM in the data set on HTLVIIIB strain of HIV-1 (setting [7]); less than 0.001 µM with HTLVIIIB strain of HIV-1 (setting [9]); more than 4000 µM in data set [4] (24 hours treatment, MTT); more than 4000 µM in data set [4] (MTT dose survival curves). The IC50 in data set [5] turned out to be 6.1 µM. Also, the “SI (Selectivity Index) endocervical epithelial cells” value in data set [1] was more than 19.8. In addition, the “acrosome status in confocal images” value in data set [2] is reported as “acrosomes remained intact; also recorded: None of the FIGS. 5B, 5C, or 5D show increased acrosome reaction”. Besides, in the data set with human sperm [3], the “spermicidal activity (in words)” value was “concentration- and time-dependent spermicidal activity”. For the same compound, in the data set on human sperm [3] (setting [8]), the EC50 was 202 µM. Further, the “SI (Selectivity Index) ectocervical epithelial cells” value in data set [4] is more than 19.8.
On to `S=C(NCCc1ccccn1)Nc1ccc(Br)cn1` [Trovirdine, reference compound], for which the “effect on sperm motion parameters (PRG, VCL, VAP, VSL, STR, LIN, BCF, ALH)” value in the data set on human sperm [3] (CASA) is “did not alter the sperm motion parameters”. For the same compound, the EC50 in the data set on human sperm [3] (3 h) was more than 500 µM. In addition, the “effect on sperm motility” value in the data set on human sperm [3] is “did not affect sperm motility”. In addition, in the data set on HTLVIIIB strain of HIV-1 (setting [7]), the half-maximal inhibitory concentration (IC50) is 0.007 µM.

Values taken from patent US6376504B1 (Parker Hughes Institute, priority 1998, dated 2002).
